From PubChem BioAssay (NCI)
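These data come from cells grown in 96-well plates and exposed to compound for 48 hours at five concentrations. At the GI50, growth is halved. The concentration for full growth arrest is given as TGI.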

Legend:
Assay in all cases: DTP human tumour cell line panel, 48 h
[1] = tested on: COLO 205 colon
[2] = tested on: IGROV1 ovarian
[3] = tested on: OVCAR-8 ovarian
[4] = tested on: RXF 393 renal
[5] = tested on: SF-295 CNS
[6] = tested on: UACC-62 melanoma
[7] = tested on: UO-31 renal
[8] = tested on: A498 renal
[9] = tested on: SK-MEL-2 melanoma

SMILES	TGI [1]	TGI [2]	TGI [3]	TGI [4]	TGI [5]	TGI [6]	TGI [7]	TGI [8]	TGI [9]	GI50 [8]	GI50 [1]	GI50 [2]	GI50 [3]	GI50 [5]	GI50 [9]	GI50 [6]	GI50 [7]
COC(=O)c1c2c(cc3c1CC1(Cc4cc5c(c(C(C)=O)c4C1)CCC5)C3)CCC2 (stereo not drawn)	> 100 µM	> 100 µM	> 100 µM	95.7 µM	99.3 µM	> 100 µM	> 100 µM	–	–	–	–	–	–	–	–	–	–
COc1ccc(CCc2cc(OC)cc(OC)c2)cc1	> 60.5 µM	> 100 µM	> 100 µM	63.8 µM	> 100 µM	> 100 µM	> 100 µM	> 100 µM	> 62 µM	–	–	–	–	–	–	–	–
Cc1cc(N(CCC#N)CCC#N)ccc1N=Nc1ccc(Br)cc1	> 100 µM	> 57.3 µM	> 96.1 µM	25.8 µM	> 51 µM	> 87.2 µM	> 57.6 µM	30 µM	48.9 µM	–	–	–	–	–	–	–	–
CN1CCc2c1nc(-c1ccc(Cl)cc1)c1c2N(C)CC1	21.1 µM	> 100 µM	> 100 µM	43.9 µM	31.1 µM	25.7 µM	32.5 µM	62.6 µM	> 100 µM	–	–	–	–	–	–	–	–
CC1=NN(C(=O)c2ccc(Cl)cc2)C(=O)/C1=C/c1ccccc1O	> 100 µM	> 100 µM	> 100 µM	> 100 µM	> 100 µM	> 100 µM	> 100 µM	> 100 µM	> 100 µM	–	–	–	–	–	–	–	–
CC(C)OP(=O)(OC(C)C)/C(N)=N/Nc1ccc([N+](=O)[O-])cc1	> 100 µM	–	> 100 µM	–	–	> 100 µM	> 100 µM	–	> 100 µM	–	–	–	–	–	–	–	–
COC(=O)CC(NC(=O)OCc1ccccc1)C(C(=O)OCc1ccccc1)C(C)(OC)OC (stereo not drawn)	34.1 µM	> 100 µM	> 100 µM	96.9 µM	> 100 µM	42.3 µM	68.7 µM	> 100 µM	36.5 µM	–	–	–	–	–	–	–	–
N.N.N.N.N.O=[N+]([O-])[O-].[Co+3].[O-][Cl+3]([O-])([O-])[O-]	> 100 µM	> 100 µM	> 100 µM	–	> 100 µM	> 100 µM	> 100 µM	> 100 µM	> 100 µM	> 100 µM	> 100 µM	> 100 µM	> 100 µM	> 100 µM	> 100 µM	> 100 µM	> 100 µM
CC(C)(C)C(=CS(=O)/N=C/c1ccccc1)C(C)(C)C (stereo not drawn)	> 100 µM	71.2 µM	> 100 µM	74.5 µM	–	–	95.7 µM	> 100 µM	34.4 µM	–	–	–	–	–	–	–	–
CC(=O)OCC(=O)[C@@]12OC(C)(C)O[C@@H]1C[C@H]1[C@@H]3CC(C=O)=C4C=C(OCCCl)CC[C@]4(C)[C@@]3(F)[C@@H](O)C[C@@]12C	34.9 µM	> 100 µM	> 100 µM	21.6 µM	46.4 µM	> 100 µM	> 100 µM	57.9 µM	58.6 µM	–	–	–	–	–	–	–	–
O=c1ncccn1C1OC(CO)C(O)C1O (stereo not drawn)	> 100 µM	> 100 µM	> 100 µM	> 100 µM	–	> 100 µM	> 100 µM	> 100 µM	> 100 µM	–	–	–	–	–	–	–	–
COc1ccc(/C(Cl)=C/c2cc(OC)ccc2OC)cc1	> 100 µM	> 100 µM	> 100 µM	69.6 µM	> 100 µM	> 100 µM	> 100 µM	> 100 µM	–	–	–	–	–	–	–	–	–
C#Cc1c(C)c(/C=C/C(C)=C/C(=O)OC)n(C)c1C	> 100 µM	> 100 µM	> 100 µM	–	> 100 µM	> 100 µM	> 100 µM	> 100 µM	–	–	–	–	–	–	–	–	–
CCCC(=O)N[C@H]1C2C3CC4C5CC(C42)C1(C)C53 (stereo partly drawn)	> 100 µM	> 100 µM	–	> 100 µM	> 100 µM	> 100 µM	> 100 µM	> 100 µM	> 100 µM	–	–	–	–	–	–	–	–
O=C(O)CCNCCCCNCCC(=O)O	> 100 µM	> 100 µM	> 100 µM	> 100 µM	> 100 µM	> 100 µM	–	> 100 µM	> 100 µM	–	–	–	–	–	–	–	–
c1ccc2c(c1)oc1ccc3nsnc3c12	> 100 µM	> 100 µM	–	> 100 µM	> 100 µM	> 100 µM	> 100 µM	> 100 µM	> 100 µM	–	–	–	–	–	–	–	–
C=CCO/N=C(\OC(=O)c1ccc([N+](=O)[O-])cc1)c1ccccc1	> 100 µM	> 100 µM	> 100 µM	–	> 100 µM	> 100 µM	> 100 µM	> 100 µM	> 100 µM	–	–	–	–	–	–	–	–
N/N=C1\C(=O)N(c2ccc(Cl)cc2Cl)C(=O)C(=O)C1c1nc2ccccc2o1 (stereo not drawn)	> 100 µM	> 100 µM	> 100 µM	–	> 100 µM	> 100 µM	> 100 µM	> 100 µM	> 100 µM	–	–	–	–	–	–	–	–
Cc1cccc(C)c1NC(=O)CCc1nc(=S)[nH][nH]1	> 100 µM	> 100 µM	> 100 µM	> 100 µM	–	> 100 µM	> 100 µM	> 100 µM	> 100 µM	–	–	–	–	–	–	–	–
C[C@]12CC[C@H](O)CC1=CC[C@@H]1C2CC[C@]2(C)Nc3c(cnn3-c3ccccc3)CC12 (stereo partly drawn)	–	33.3 µM	> 100 µM	4.01 µM	1.87 µM	17.4 µM	25.3 µM	29.7 µM	48.2 µM	–	–	–	–	–	–	–	–
